Results: PMC3706270 (Immunogenetics, 2011)

Test system: Mamu-A1*007:01
Format: binding, Macaca mulatta
Conditions: Table 4; for Relative binding (WT): binding relative to the WT epitope

Row | Sequence | Relative binding (WT) | Fold decrease (fold decrease of binding affinity versus WT epitope)
1 | YHSNVKEL | 1.0 | –
2 | SQGIRQILFL [Peptide 3408.0014] | 0.0035 | –
3 | NYIYDRHGDTL [Peptide 3408.0007] | <0.000003 | >350000
